One compound from patent US20210299150A1, “AP39 IMPACT ON MITOCHONDRIA, METABOLISM, GENE TRANSCRIPTION REGULATION, CARDIOTOXICITY PROTECTION AND CANCER TREATMENT” (priority 2020, published 2021) can be followed below.

For experiment [1], the system named is H9C2 cells. The experiment in a line: Mitochondrial ROS, MitoSox Red, H9C2. It is filed as cell-based, Rat. Conditions: H9C2, AP39 and Dox co-treatment. As to the method: (§1) AP39 treatment also ameliorated Dox toxicity in a model of Rat cardiomyoblast cell line, H9C2. […] There was a narrow window of protection, as 30 μM and 50 μm doses were not as strong as the 40 μM dose (FIGS. 5A and B) in conferring protection. […] Note that Dox caused an apoptotic phenotype in correlation with ROS levels (FIG. 5F, Dox lane). This in vitro AP39 protection is modest when compared to the in vivo scenario. This difference may be due to rapid clearance of toxic metabolites (for instance, higher lactate production, FIG. 10D) and better oxygen supply (AP39 stimulated OCR, FIG. 7C) in vivo and lack of such sophistication in vitro.

The test system of a further experiment is DIC in mouse models. The experiment in a line: Dox-induced cardiotoxicity (DIC) in mouse models: heart weight, echocardiography, histology. It is filed as in vivo. As to the method: AP39 treatment ameliorated DIC in mouse models in a dose dependent manner. DIC was induced by giving a single dose of Dox i.p. (FIG. 3A) as reported before^48. AP39 was given for six consecutive days starting with Dox treatment. two different doses of AP39 were tested.
AP39 ameliorated cardiac fibrosis in a dose dependent manner. […] It is possible that lower doses of AP39 might have induced favorable metabolic changes which are enough to improve heart function but not sufficient to protect from cardiac cell death after Dox. These findings needs to be confirmed in a larger study.

For experiment [2], the system named is H9C2 cells. The experiment in a line: Crystal violet staining of H9C2 cells, Dox toxicity. It is filed as cell-based, Rat. On the procedure: as §1
(§2) Crystal Violet (CV) assay. For the CV Staining assay, cells were stained with 0.5% crystal violet in 30% ethanol for 10 minutes at room temperature after removal of the medium. The cells were lysed in a 1% SDS (sodium dodecyl sulfate) solution. The absorbance of the solution was measured using a spectrophotometer at a wavelength of 595 nm. FIG. 27.

The test system of a further experiment is H1299 lung cancer cells. Briefly: Cell viability of H1299 lung cancer cells. It is filed as cell-based. As to the method:
(§3) Methods for cell viability: Cells were plated in 96 wells/6 wells cell culture plates. After 24 hrs of plating, the treatments (added in the growth medium) were conducted. The following assays were performed after 24 hrs of the treatments (day 2). (FIGS. 15A, 17-20, 24-27)
(§4) MTT assay methods. For the MTT assay, […] of 5 mg/ml MTT-tetrazolium salts in PBS was added to each well containing the growth medium. After 3 hours of incubation, the medium was removed and the formazan crystals were dissolved by adding DMSO. The absorption of the formazan solution was measured using a spectrophotometer at a wavelength of 570 nm. FIGS. 15B, 21-22.
H1299 lung cancer cells were exposed to control, AP39 (AP) at 40 or 60 μM, Doxorubicin at 2.5 or 20 μM, thiolactate at 10 mM, AP39 and Doxorubicin, AP39 and thiolactate, or Doxorubicin and Thiolactate. […] FIGS. 20-22.

Experiment [3] deals with 786-O cells renal cancer cells. Briefly: Cell viability of 786-O renal cancer cells. It is filed as cell-based. As to the method: as §3, §4
786-O cells renal cancer cells were exposed to control, AP39 (AP) at 40 or 60 μM, Doxorubicin at 2.5 or 20 μM, thiolactate at 10 mM, AP39 and Doxorubicin, AP39 and thiolactate, or Doxorubicin and Thiolactate. […] FIGS. 18 and 21.

For a further experiment, the system named is MCF7 breast cancer cells. The experiment in a line: Cell viability (MTT, crystal violet) of MCF7 breast cancer cells. It is filed as cell-based. On the procedure: as §3, §4, §2
MCF7 breast cancer cells were exposed to control, AP39 (AP) at 40 or 60 μM, Doxorubicin at 2.5 or 20 μM, thiolactate at 10 mM, AP39 and Doxorubicin, AP39 and thiolactate, or Doxorubicin and Thiolactate. […] FIGS. 26-27.

Experiment [4] is described as follows: 13C-glucose isotope tracing and GC-MS metabolite quantification. It is filed as cell-based. As to the method:
Stable isotope (13C glucose) tracer studies. Heatmap.
(§5) To this end, 13C-glucose flux/isotope tracing and quantified metabolites through GC-MS were examined at 16 hrs and 24 hrs after the treatments. Glucose, glutamine and lactate were also measured in supernatants at these time points. […] With the exception of glycolytic metabolites, the remaining metabolic pathways (poor labeling) were non-operational after Dox treatment (FIG. 10A).
When considered AP39-mediated activation of AMPK, H2S is selectively halting energy consuming anabolic pathways, such as protein synthesis (also, lipid, AMPK inhibits […], a rate limiting lipid synthesizing enzyme, FIGS. 7A and B), as observed before^41, thus leading to accumulation of amino acids and is enhancing TCA cycle through AMPK activation. The net result is better energy management with AP39/H2S treatment.

A further experiment concerns AMPK, Opa1. The experiment in a line: Western blot of AMPK activation and Opa1 isoforms. It is filed as cell-based. Conditions: after AP39 treatment. An excerpt:
AP39 enhanced AMPK activation and produced shorter isoform of Opa1, i.e. no longer isoform of Opa1. Note AMPK substrate ACC phosphorylation
Mitochondrial energy efficiency is regulated through accumulation of the shorter form of Opa1 after AP39 treatment. […] Thus, AP39 treatment led to mitochondrial fission, better quality control through increased mitophagy (increased AMPK activation) and energetic efficiency (short form of Opa1), which were all needed to eliminate Dox damaged mitochondria and to halt the functional decline. Apart from its role in mitophagy and quality control, AMPK activation also induces transcription of nuclear encoded mitochondrial resident proteins.
Background: In western blotting, separated proteins are transferred to a membrane and probed.

The nature of experiment [5]: Glucose, glutamine and lactate in cell culture supernatants. It is filed as cell-based. As to the method:
Quantification of glutamine, glucose and lactate in the cell culture supernatants at 16 and 24 hrs. n=3; p<0.05 or 0.01 (2 symbols); * vs Cont; # vs Dox at 16 hrs; and $ vs Cont; ^ vs Dox at 24 hrs.
as §5
However, AP39 treatments caused dominant effects in glucose utilization (1.5 fold increase vs Dox at 24 hrs) and lactate production. Such high lactate production is one of the main reasons behind the modest in vitro protective ability of AP39 against Dox (FIG. 5), which is in contrast to the in vivo scenario (FIGS. 3 and 4). Thus, metabolomics and transcriptomic approaches led to better understanding of the protective function of AP39.

The mark [6] stands for this setting: AP39 40 or 60 μM, thiolactate 10 mM, 24 hrs.
[7] abbreviates: combination with Doxorubicin 2.5 μM.

As for `O=C(CCCCCCCCC[P+](c1ccccc1)(c1ccccc1)c1ccccc1)Oc1ccc(-c2cc(=S)ss2)cc1.[Br-]` [AP39], the “ROS in mitochondria (MitoSox Red)” value in the experiment with H9C2 cells [1] is listed as “significant amelioration of ROS in mitochondria”. For the same compound, the “heart weight decline seen during Dox treatment” value in the experiment with DIC in mouse models (AP39 higher dose 0.642 mg/kg, six consecutive days, single dose of Dox i.p.) is recorded as “effective in countering heart weight decline”. For the same compound, the “left ventricular dysfunction (echocardiography)” value with DIC in mouse models (both doses of AP39, six consecutive days, single dose of Dox i.p.) was “effective in ameliorating left ventricular dysfunction”. Moreover, the “Dox induced fibrosis and cell infiltration (histological sections)” value in the experiment on DIC in mouse models (higher AP39 dose) is “prevented Dox induced fibrosis and cell infiltration”. The “cardiac pathology (fibrosis, cell infiltration)” value in the experiment with DIC in mouse models (lower AP39 dose) is “not cardiac pathology”. Moreover, the “protection against Dox toxicity, crystal violet staining” value with H9C2 cells [2] (H9C2, AP39 with Dox) is given as “significant protection”. The “AP39 dose conferring strongest protection (30 and 50 not as strong)” value with H9C2 cells [2] (H9C2, crystal violet, with Dox) was 40 µM. Further, the figures for the “cell killing, agent alone” value (with H1299 lung cancer cells (setting [6]); in experiment [3] (setting [6]); in the experiment on MCF7 breast cancer cells (setting [6])) were “able to kill lung cancer cells”, “able to kill renal cancer cells” and “able to kill breast cancer cells”, respectively. For the same compound, the “potency of low doses of Doxorubicin” value (in the experiment on H1299 lung cancer cells (setting [7]); in experiment [3] (setting [7]); in the experiment on MCF7 breast cancer cells (setting [7])) was “able to increase the potency of low doses of Doxorubicin” throughout. Moreover, the “Serine and glycine 13C labeling” value in experiment [4] (16 hrs and 24 hrs) is on record as “suppressed”. In addition, the “accumulation of TCA metabolites during Dox treatment” value in experiment [4] (AP39 with Dox) is on record as “attenuated accumulation of TCA metabolites”. Also, in [4] (AP39 with Dox), the “amino acid accumulations during Dox treatment” value is given as “not effective in preventing many amino acid accumulations”. Further, the “13C labeling of TCA cycle metabolites (citrate, malate, alpha-ketoglutarate, fumarate)” value in experiment [4] (AP39 with or without Dox, 16 hrs and 24 hrs) is reported as “highly labeled”. In the experiment on AMPK, Opa1, the AMPK activation entry is recorded as “potent AMPK activation”. The “Opa1 isoforms (Opa1-S, Opa1-L)” value in the experiment on AMPK, Opa1 is given as “elevated amounts of the short form of Opa1 (Opa1-S) at the expense of long form (Opa1-L)”. Further, the “glutamine utilization (supernatants)” value in experiment [5] (compared to control) was “suppressed glutamine utilization”. Besides, in experiment [5] (supernatants), the lactate production result is “potent inducer of lactate production”. The same compound displayed a glucose utilization in experiment [5] (supernatants, at 24 hrs) of 1.5 fold increase vs Dox.
